Measurements: US20250262139A1, “POLYPEPTIDES AND METHODS FOR IMPROVING SKIN CONDITIONS” (INTERK PEPTIDE THERAPEUTICS LIMITED, priority 2020, published 2025)
Where no end group is shown, it is not given here.

What was measured:
human skin explants = experiment: CPD formation in UV-irradiated human skin explants; type: cell-based
Protocol: Human skin removed at elective surgery was cleaned, dissected and cut into pieces of approx. 5 mm×5 mm. Each piece was placed in a well of a 96 well plate, with individual plates prepared to assess the effects 3 hrs post treatment. All samples were performed in triplicate for each treatment. Skin was subjected to UV-radiation from solar-simulated UV source for 1.5 h (UVR), or non-irradiation (SHAM). Given that human skin is thicker than mouse skin, human skin explants were exposed to a radiation dose three times higher than that used for mouse skin, i.e., 20 J/cm2 versus 7 J/cm^2, respectively, and the output spectrum of the laboratory solar simulator has previously been reported (Rybchyn M S et al, J Invest Dermatol. 2018 May; 138 (5): 1146-1156) and treated immediately after with a vehicle control, Calcitriol (1 nM) or the polypeptide IK34720 (SEQ ID NO: 3) at concentrations of 50 μM, 250 μM or 500 μM.
Samples harvested at 3 hrs were fixed, section, stained and quantified as described in Example 5.

Skh: hr1 hairless mice = experiment: 8-OHdG (8oxodG) immunohistochemistry in UV-irradiated mouse skin; type: in vivo; conditions: topical immediately after 3 MED UVR; IK34720 20, 100 or 200 μg, Calcitriol 11.4 pmol/cm2; biopsy 3 h post-UVR; vs vehicle
Protocol: 8-hydroxy-2′-deoxyguanosine or 8-oxo-7,8-dihydro-2′-deoxyguanosine (8-OHdG/8-oxodG) is one of the predominant forms of free radical-induced in oxidative lesions with the concentrations of 8-OHdG within a cell being a measurement of oxidative stress. The role of the polypeptide IK34720 (SEQ ID NO: 3) in UV-induced oxidative stress was assessed using the following protocol.
Female Skh: hr1 hairless mice were exposed to solar simulated UV-irradiation (UVR) by exposure to one fluorescent UVB tube (Philips TL40W 12R/S, Eindhoven, The Netherlands) in combination with 6 UVA tubes (Hitachi 40W F40T 10/BL, Tokyo, Japan). The UVA and UVB irradiation was filtered through a 0.125 mm cellulose acetate sheet (Grafix Plastics, Cleveland, OH) as previously described (Dixon K M et al., Biochem Mol Biol, 2007, 103 (3-5): 451-6). […]
Biopsies were taken from UV-irradiated dorsal skin 3 h post-UVR and fixed in Histochoice fixative (Amresco, Solon OH) for 6 h. […] Sections were subjected to routine hematoxylin and eosin staining for visualization of sunburn cells at 40× magnification, and the number of sunburn cells per linear millimetre of skin section recorded.
Levels of 8-oxo-2′-deoxyguanosine (8oxodG) indicative of oxidative stress were detected by immunohistochemistry and image analysis (Dixon K M et al., Cancer Prev Res 2011, 4 (9): 1485-94) as set out below. […]

[1] = system: MM1418-C1 lightly pigmented melanoma cells; experiment: melanin content after UVB, melanoma cells; type: cell-based; conditions: 10 μM for 24 hours prior to 2 kJ/m2 UVB; measured 24 hours later; relative to untreated UVB cells
Protocol: In brief, MM1418-C1 lightly pigmented melanoma cells or human primary melanocytes were grown in 24 well culture plates and treated with 10 μM
RSKAKNPLYRRRRRRRRR (“IK-3”) for 24 hours prior to being exposed to 2 kJ/m2 UVB radiation. Controls (not treated with RSKAKNPLYRRRRRRRRR) labelled “Con” and “UVB”, respectively, were exposed to either 0 or 2 KJ/m2 UVB radiation. Cell groups were returned to the incubator for 24 hours and then the levels of melanin and protein in the cells were measured spectrophotometrically. In each experiment triplicate samples were measured. Data shown in FIG. 19 indicate the average values+SEM (μg melanin/mg cell protein) exposed to 0 or 2 KJ/m2 UVB which had been pre-treated with 0 or 10 μM of RSKAKNPLYRRRRRRRRR 24 hours prior to being exposed to UVB radiation. The t-test (2-tailed) was used to determine statistical significance, *p<0.05, ***p<0.001.

Sequence: RSKAKNPLYRRRRRRRRR (not fully specified (some residues)) [IK34720]
- percentage of CPD positive cells (human skin explants; 500 μM, 3 hrs post irradiation, two individuals): statistically significantly reduced
- cells stained for CPDs (human skin explants; 3 hrs post irradiation/treatment, Calcitriol 1 nM, IK34720 50, 250 or 500 μM): fewer stained cells
- 8-OHdG formation in the skin (Skh: hr1 hairless mice): inhibits 8-OHdG formation
- melanin content [1]: significantly decreased melanin content
